Columns and labels:
[1] = tested on: A2780/mcp1; assay: Modified MTT assay, A2780/mcp1 (cisplatin resistant, MMR deficient); format: cell-based, human; settings: 24 hour drug exposure; for IC50: Homo sapiens, A2780/mcp1, MTT; for A2780/mcp1 RF (Resistance Factor): fold difference in resistance from parental A2780
Procedure: (§1) Relative drug sensitivities (Resistance Factor) and IC50 values were determined by a modified MTT assay (see, e.g., Mosmann, 1983; Plumb et al., 1989), as described below: • (1) Trypsinise a sub-confluent monolayer culture and collect cells in growth medium containing serum. Centrifuge the suspension (200 g, 5 minutes) to pellet cells, re-suspend in growth medium, and count cells. Dilute cells to a density of 5×10^3 cells/mL allowing 60 mL of cell suspension for 3 microtitre plates. Transfer cell suspension to a 10 cm petri dish, and with a multichannel pipette add 200 μL to each well of the central 10 columns of a flat bottomed 96-well plate (80 wells per plate) starting with column 2 and ending with column 11. Add 200 μL of growth medium to the 8 wells in columns 1 and 12. Put the plates in a plastic box and incubate in a humidified atmosphere at 37° C. for 2-3 days so that cells are in the exponential phase of growth for drug addition. • (2) Prepare a serial 5-fold dilution of the cytotoxic drug in growth medium to give 8 concentrations. Pipette 6 mL of growth medium in to each of 7 universal containers (30 mL). Prepare 10 mL of the highest concentration of the drug and transfer 1.5 mL of this solution to the first universal container. Mix and then transfer 1.5 mL to the next universal container. Continue until the seventh universal container is reached. The concentrations should be chosen so that the highest concentration kills most of the cells and the lowest kills none of the cells. Normally, three plates are used for each drug to give triplicate determinations within one experiment. • (3) The medium is removed from all the wells in columns 2 to 11. This can be achieved with a hypodermic needle attached to a suction line. Cells in the 8 wells in columns 2 and 11 are fed with 200 μL of fresh growth medium. The drug solutions are transferred to 10 cm petri dishes and 200 μL added to all 8 wells of a column. For ease of analysis arrange the drug solutions in order so that the highest is in column 3 down to the lowest in column 10. Plates are returned to the plastic box and incubated for 24 hours. • (4) At the end of the drug exposure period, the medium is removed from all wells containing cells and the cells are fed with 200 μL of fresh medium. • (5) The plates are fed daily for two more days. • (6) The plates are fed with 200 μL of fresh medium and 50 μL of the MTT solution (5 mg/mL in PBS) is added to all wells in columns 1 to 11. Plates are wrapped in aluminium foil and incubated for 4 hours in a humidified atmosphere at 37° C. • (7) The medium and MTT are then removed from the wells and the purple MTT-formazan crystals dissolved by addition of 200 μL of DMSO to all wells in columns 1 to 11. Glycine buffer is added (25 μL per well) to all wells containing DMSO. • (8) Absorbance is recorded at 570 nm with the wells in column 1, which contained medium and MTT but no cells used as a blank. • (9) A graph is plotted of absorbance (y-axis) against drug concentration (x-axis). The mean absorbance reading from the wells in columns 2 and 11 is used as the control absorbance and the IC50 concentration is determined as the drug concentration required to reduce the absorbance to half that of the control. IC10 or IC90 values can be determined in the same manner.
(§2) A2780/cp70 and A2780/mcp1 have lost expression of MLH1, have lost MMR activity, and have microsatellite instability compared to A2780. The CpG island at the MLH1 gene is methylated in A2780/cp70 and A2780/mcp1, but not A2780.
(§3) IC50 values (μM) for A2780, A2780/cp70, and A2780/mcp1 and Resistance Factors (RF) (the fold difference in resistance from parental A2780) were determined based on the MTT assay described above for several compounds of the present invention (including, e.g., MMR201).

[2] = tested on: A1 (MLH1+ve, MMR proficient); assay: Modified MTT assay, A1 line (A2780/cp70 + chromosome 3, MLH1 +ve); format: cell-based, human; settings: Homo sapiens, A2780/CP70, read-out: A1 or E1 MLH1 +ve MMR proficient IC50
Procedure: as §1
(§4) A1, E1, and A2 are derived by transfer of human chromosome 3 into A2780/cp70. MLH1 is located on chromosome 3.
(§5) IC50 values (μM) for A1 (MLH1+ve, MMR proficient) or E1 (MLH1+ve, MMR proficient) and A2 (MLH1−ve, MMR deficient) lines and Resistance Factors (RF) (the fold difference in resistance between the A2 line, MMR deficient, and the A1 line, MMR proficient) were determined based on the MTT assay described above for several compounds of the present invention (including, e.g., MMR201). Compounds showing increased activity against the MLH1 deficient A2 line compared to the MLH1 proficient A1 or E1 line have RF values less than 1.

[3] = tested on: A2 (MLH1−ve, MMR deficient); assay: Modified MTT assay, A2 line (A2780/cp70 + chromosome 3, MLH1 -ve); format: cell-based, human; settings: for IC50: Homo sapiens, A2780/CP70, A2 line
Procedure: as §1, §4, §5

[4] = tested on: A2780; assay: Modified MTT assay, A2780 (parental, MMR proficient); format: cell-based, human; settings: Homo sapiens, A2780, 24 hour drug exposure
Procedure: as §1, §2, §3

[5] = tested on: A2780/cp70; assay: Modified MTT assay, A2780/cp70 (cisplatin resistant, MMR deficient); format: cell-based, human; settings: 24 hour drug exposure; for IC50: Homo sapiens, A2780/CP70, MTT; for A2780/cp70 RF (Resistance Factor): fold difference in resistance from parental A2780
Procedure: as §1, §2, §3

[6] = tested on: E1 (MLH1+ve, MMR proficient); assay: Modified MTT assay, E1 line (A2780/cp70 + chromosome 3, MLH1 +ve); format: cell-based; settings: Homo sapiens, read-out: A1 or E1 MLH1 +ve MMR proficient IC50
Procedure: Relative drug sensitivities (Resistance Factor) and IC50 values were determined by a modified MTT assay (see, e.g., Mosmann, 1983; Plumb et al., 1989), as described below: • (1) Trypsinise a sub-confluent monolayer culture and collect cells in growth medium containing serum. Centrifuge the suspension (200 g, 5 minutes) to pellet cells, re-suspend in growth medium, and count cells. Dilute cells to a density of 5×10^3 cells/mL allowing 60 mL of cell suspension for 3 microtitre plates. Transfer cell suspension to a 10 cm petri dish, and with a multichannel pipette add 200 μL to each well of the central 10 columns of a flat bottomed 96-well plate (80 wells per plate) starting with column 2 and ending with column 11. Add 200 μL of growth medium to the 8 wells in columns 1 and 12. […] Glycine buffer is added (25 μL per well) to all wells containing DMSO. • (8) Absorbance is recorded at 570 nm with the wells in column 1, which contained medium and MTT but no cells used as a blank. • (9) A graph is plotted of absorbance (y-axis) against drug concentration (x-axis). The mean absorbance reading from the wells in columns 2 and 11 is used as the control absorbance and the IC50 concentration is determined as the drug concentration required to reduce the absorbance to half that of the control. IC10 or IC90 values can be determined in the same manner. […]

[7] = fold difference in resistance between A2 (MMR deficient) and A1 (MMR proficient)

Structure (SMILES)	IC50 [1]	IC50 [2]	IC50 [3]	IC50 [5]	IC50 [6]	A2780/mcp1 RF (Resistance Factor) [1]	RF (Resistance Factor) [3, 7]	IC50 [4]	A2780/cp70 RF (Resistance Factor) [5]	RF (Resistance Factor) ([3]; A2 (MMR deficient) versus E1 (MMR proficient))
CC[n+]1ccccc1/C=C1\SC=C(C)N1C.[I-] [MMR304]	35600 ± 1960 nM	54200 ± 10800 nM	16100 ± 2540 nM	18000 ± 1300 nM		0.55	0.30	64500 ± 3910 nM	0.28	
CC[n+]1ccccc1/C=C1\Sc2oc3ccccc3c2N1C.[I-] [MMR307]	716 ± 41 nM		648 ± 85 nM	932 ± 95 nM	937 ± 66 nM	0.95		752 ± 73 nM	1.24	0.69
CC[n+]1ccccc1/C=C1\SC=CN1C.[I-] [MMR302]	12900 ± 1000 nM	2830 ± 460 nM	4150 ± 800 nM	7100 ± 370 nM		0.95	1.5	13600 ± 1550 nM	0.52	

These reach a lower IC50 [1]. Values come first.

IC50 [1]	IC50 [2]	IC50 [3]	IC50 [5]	IC50 [6]	Structure (SMILES)	A2780/mcp1 RF (Resistance Factor) [1]	RF (Resistance Factor) [3, 7]	IC50 [4]	A2780/cp70 RF (Resistance Factor) [5]	RF (Resistance Factor) ([3]; A2 (MMR deficient) versus E1 (MMR proficient))
481 ± 48 nM	4100 ± 450 nM	681 ± 76 nM	435 ± 22 nM		CC[n+]1c(/C=C2\SC=CN2C)ccc2ccccc21.[I-] [MMR212]	0.29	0.17	1670 ± 370 nM	0.26	
358 ± 103 nM	2550 ± 180 nM	530 ± 18 nM	325 ± 44 nM		CC[n+]1c(/C=C2\SC=C(C)N2C)ccc2ccccc21.[I-] [MMR213]	0.29	0.21	1230 ± 51 nM	0.26	
38 ± 6 nM	144 ± 9 nM	27 ± 3 nM	40 ± 4 nM		CC[n+]1c(/C=C2\Sc3oc4ccccc4c3N2C)ccc2ccccc21.[I-] [MMR211]	0.55	0.19	69 ± 7 nM	0.58	
